Test results: patent US10959993B2, “Combination of Bcl-2 inhibitor and MEK inhibitor for the treatment of cancer” (Genentech, Inc., priority 2015, dated 2021)

Key:
[1] = system: AML stem/progenitor cells from primary AML; test: Mass cytometry (CyTOF) of intracellular signaling proteins; format: cell-based
Procedure: Mononuclear cells from primary AML were treated with cobimetinib at 1.0 μM for 2 hrs followed by 10 minutes plus or minus stimulation with G-CSF (100 ng/ml). The SPADE tree was generated using markers including CD7, CD117, CD123, CD64, CD34, CD26, CD45, TIM3, CD33, CD19, CD56, CD2, CD15, CD41, CD38, CD166, CD3, CD90, CD11b, CD135 and HLA-DR. FIG. 4A depicts representative markers from among those markers tested. The grey-scale color represents the expression levels of each indicated protein. (FIG. 4A) Bcl-2 family members at baseline in the gated stem/progenitor AML cell populations (AML4295468: CD34+CD38+CD123+CD33+; AML 4366894: CD34+CD38-CD123+CD33+). (FIG. 4B) The median intensity of each protein in the gated cell populations mentioned above. (FIG. 4C) The intracellular signaling protein activation in the gated populations mentioned above.
We next investigated signaling patterns and Bcl-2 family protein expression in AML stem/progenitor cells using a 34-antibody panel and time-of-flight mass cytometry (CyTOF). CyTOF is a variation of flow cytometry in which antibodies are labeled with heavy metal ion tags rather than fluorochromes. Readout is by time-of-flight mass spectrometry. This allows for the combination of many more antibody specificities in single samples, without significant spillover between channels. […] (FIG. 4A). […] To test the efficacy of both compounds in vivo, we injected NSG mice with genetically engineered OCI-AML3/Luc/GFP cells. […] (FIGS. 5A and 5B). To further explore the anti-leukemia efficacy of both compounds, we injected NSGS mice with genetically engineered […] cells.

AML cell lines [2] = test: Reverse phase protein array (RPPA) of sensitive v. resistant cell lines; format: cell-based; design: p16INK4a Mean. Res / p16INK4a Mean. Sens / p53 Mean. Res / p53 Mean. Sens / Bax Mean. Res / Bax Mean. Sens / Bim Mean. Res / Bim Mean. Sens / bRaf (T401) Mean. Res / bRaf (T401) Mean. Sens / Bcl-2 Mean. Res / Bcl-2 Mean. Sens: unit not given here
Procedure: (§1) Representative proteins that are differentially expressed between combination-sensitive and combination-resistant cells were shown. (FIG. 3E) The Bcl-2:BIM complex was measured by the MSD ELISA assay in AML cell lines, untreated, treated with venetoclax alone, treated with cobimetinib alone, or treated with cobimetinib/venetoclax at 1×IC50 values for 4 hrs.
(§2) Ongoing analysis of pharmacodynamic markers include transcriptome assessment by RNA sequencing, functional proteomics by reverse phase protein array (RPPA), and quantification of Bcl-2:BIM and MCL-1:BIM complexes using the electrochemiluminescent ELISA assay (Meso Scale Discovery, MSD-ELISA). RPPA is a high-throughput technology that performs protein assays on thousands of samples simultaneously. This protein array platform measures levels of protein expression, as well as protein modifications such as phosphorylation.

OCI-AML3/Luc/GFP cells = test: OCI-AML3/Luc/GFP AML model in NSG mice; format: in vivo; conditions: compared to controls, more prominently in cobimetinib single agent and co-treated mice
Procedure: (§3) OCI-AML3/Luc/GFP cells (1×10^6 per mouse) were injected intravenously into NSG mice. (FIG. 5A) The luciferase intensity was quantified by serial bioluminescence imaging from 8 representative mice from 4 groups at week 5 post injection. (FIG. 5B) Overall survival rate in each group was estimated by the Kaplan-Meier method. 1×10^6 MOLM13-luci-GFP cells were injected into NSGS mice. Leukemia engraftment was confirmed on day 3 using Bioluminescence imaging (BLI). Mice were orally dosed daily with cobimetinib (10 mg/kg) or venetoclax (100 mg/kg) or in combination for 14 days. Luciferase intensity was shown on day 17 (FIG. 5C). Human CD45 engraftment in BM and spleen was determined by CyTOF. (FIG. 5D). The viable cell count was measured using Vi-Cell. (FIG. 5E). * *P: 0.01, ***P: 0.001.
(§4) We next investigated signaling patterns and Bcl-2 family protein expression in AML stem/progenitor cells using a 34-antibody panel and time-of-flight mass cytometry (CyTOF). CyTOF is a variation of flow cytometry in which antibodies are labeled with heavy metal ion tags rather than fluorochromes. Readout is by time-of-flight mass spectrometry. This allows for the combination of many more antibody specificities in single samples, without significant spillover between channels. […]

Bcl-2:BIM complex = biological target: T1, Bcl-2:BIM complex (Homo sapiens, UniProt P10415); test: MSD ELISA of Bcl-2:BIM complex; format: cell-based; conditions: 1×IC50, 4 hrs, preliminary MSD data
T1 construct: endogenous in cells; host or cells: AML cell lines (OCI-AML3 is the only one named for this read-out)
T1 sequence (P10415 whole entry, one chain of several): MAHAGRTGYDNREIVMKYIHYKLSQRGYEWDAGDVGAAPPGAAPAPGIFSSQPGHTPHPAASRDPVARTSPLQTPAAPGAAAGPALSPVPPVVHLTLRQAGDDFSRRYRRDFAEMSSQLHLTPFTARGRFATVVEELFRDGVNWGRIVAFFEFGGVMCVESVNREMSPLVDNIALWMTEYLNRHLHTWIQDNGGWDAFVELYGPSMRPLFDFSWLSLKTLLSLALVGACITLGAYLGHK
Procedure: as §1, §2
Representative proteins that are differentially expressed in sensitive and resistant cell lines to the combination. (FIGS. 3A, 3B, 3C, and 3D). […] (FIG. 3E).

primary AML blasts = test: Long-term culture of primary AML blasts: apoptosis and growth inhibition by flow cytometry; format: cell-based; conditions: AML 4366894
Procedure: (FIG. 2A) Primary AML peripheral blood mononuclear cells were cultured in serum-Free Expansion Medium (SFEM) supplemented with BIT 9500 Serum Substitute and cytokines including stem cell factor (100 ng/ml), Flt3 ligand (50 ng/ml), IL-3 (20 ng/ml) and G-CSF (20 ng/ml) as well as SRI (1 μM). After culture for 5 days, cells were stained with CD45-PE, Annexin-V-APC and DAPI−. The apoptotic leukemia blasts (CD45dimAnnexin-V+) were determined by flow cytometry. Results were expressed as percentage of specific apoptosis calculated by the formula: 100×(% apoptosis of treated cells−% apoptosis of control cells)/(100−% apoptosis of control cells), or % growth inhibition of control using the viable cell counts determined by Annexin-/DAPI. […] MNCs isolated from patients with AML (100,000) or healthy donors (50,000) were plated in methylcellulose medium (1 mL/well; Cat. 04435; [sequence] Technologies Inc., Vancouver, BC, Canada) in triplicate per condition. Colonies were scored after 2 weeks of culture.

AML cell lines [3] = test: CellTiter-Glo in vitro cytotoxicity / growth inhibition, 72 hrs; format: cell-based; conditions: MOLM14, OCI-AML3, NB4 and THP1
Procedure: (FIG. 1A) The AML cell lines were treated with cobimetinib or venetoclax at 0.001, 0.01, 0.1 and 1.0 μM for 72 hrs. Calcusyn software was used to calculate the IC50 values and combination index (CI) based on the luminescent intensity that correlated with number of viable cells determined by the CellTiter-Glo assay.
The activity of 4-(4-{[2-(4-chlorophenyl)-4,4-dimethylcyclohex-1-en-1-yl]methyl}piperazin-1-yl)-N-({3-nitro-4-[(tetrahydro-2H-pyran-4-ylmethyl)amino]phenyl}sulfonyl)-2-(1H-pyrrolo[2,3-b]pyridin-5-yloxy)benzamide (ABT-199, or venetoclax) and [3,4-Difluoro-2-(2-fluoro-4-iodoanilino)phenyl]{3-hydroxy-3-[(2S)-piperidin-2-yl]azetidin-1-yl}methanone (cobimetinib) was examined in a panel of myeloid leukemia cell lines with diverse genetic alterations.

MOLM13-luci-GFP cells = test: MOLM13-luci-GFP AML model in NSGS mice; format: in vivo; conditions: cobimetinib 10 mg/kg, venetoclax 100 mg/kg orally daily for 14 days, compared to controls, more prominently in venetoclax and co-treated mice
Procedure: as §3, §4

[4] = cell lines resistant to cobimetinib
[5] = cell lines sensitive to cobimetinib
[6] = cell lines resistant to venetoclax
[7] = cell lines sensitive to venetoclax

## O=C(c1ccc(F)c(F)c1Nc1ccc(I)cc1F)N1CC(O)([C@@H]2CCCCN2)C1 [cobimetinib, [3,4-difluoro-2-(2-fluoro-4-iodoanilino)phenyl]{3-hydroxy-3-[(2S)-piperidin-2-yl]azetidin-1-yl}methanone]
[1]; AML 4295468, 1.0 μM for 2 hrs
  G-CSF-evoked p-STAT3/5: only slightly reduced
  SCF-induced p-AKT: only slightly reduced
  basal and G-CSF- or SCF-stimulated p-ERK: efficiently down-regulated
[1]; AML 4366894, 1.0 μM for 2 hrs
  G-CSF-induced p-STAT3/5: not significantly changed
  p-ERK: also reduced
[1]; primary AML, 1.0 μM for 2 hrs
  phosphorylation of STATS pathway: increased phosphorylation
AML cell lines [2]; [4]
  Bax Mean. Res: 1.010
  Bim Mean. Res: 0.893
  ERK 1/2 (T202/Y204) Mean. Res: 1.073
  FLT3 (Y589/591) Mean. Res: 0.948
  PTEN (S380) Mean. Res: 1.049
  PTEN Mean. Res: 1.013
  RSK3 (T356/S360) Mean. Res: 0.859
  S6 (S235/236) Mean. Res: 0.748
  p16INK4a Mean. Res: 2.220
  p38MAP (T180/Y182) Mean. Res: 0.983
  p53 Mean. Res: 0.939
AML cell lines [2]; [5]
  Bax Mean. Sens: 1.307
  Bim Mean. Sens: 1.175
  ERK 1/2 (T202/Y204) Mean. Sens: 1.988
  FLT3 (Y589/591) Mean. Sens: 1.256
  PTEN (S380) Mean. Sens: 1.335
  PTEN Mean. Sens: 1.361
  RSK3 (T356/S360) Mean. Sens: 1.495
  S6 (S235/236) Mean. Sens: 1.174
  p16INK4a Mean. Sens: 1.184
  p38MAP (T180/Y182) Mean. Sens: 1.275
  p53 Mean. Sens: 1.373
OCI-AML3/Luc/GFP cells
  leukemia burden by bioluminescent imaging (BLI): significantly reduced leukemia burden
Bcl-2:BIM complex; AML cell lines
  Bcl-2:BIM complex: but not cobimetinib disrupted
Bcl-2:BIM complex; OCI-AML3 cells
  Bcl-2:BIM complex: accumulated

## CC1(C)CCC(CN2CCN(c3ccc(C(=O)NS(=O)(=O)c4ccc(NCC5CCOCC5)c([N+](=O)[O-])c4)c(Oc4cnc5[nH]ccc5c4)c3)CC2)=C(c2ccc(Cl)cc2)C1 [venetoclax, 4-(4-{[2-(4-chlorophenyl)-4,4-dimethylcyclohex-1-en-1-yl]methyl}piperazin-1-yl)-N-({3-nitro-4-[(tetrahydro-2H-pyran-4-ylmethyl)amino]phenyl}sulfonyl)-2-(1H-pyrrolo[2,3-b]pyridin-5-yloxy)benzamide]
Primary AML blasts
  sensitivity of primary AML sample: resistant
AML cell lines [2]; [6]
  Bax Mean. Res: 0.958
  Bcl-2 Mean. Res: 0.817
  Bim Mean. Res: 1.143
  PTEN (S380) Mean. Res: 0.839
  PTEN Mean. Res: 0.704
  S6 (S240/244) Mean. Res: 1.918
  bRaf (T401) Mean. Res: 1.263
  p16INK4a Mean. Res: 1.989
AML cell lines [2]; [7]
  Bax Mean. Sens: 1.227
  Bcl-2 Mean. Sens: 1.081
  Bim Mean. Sens: 0.811
  PTEN (S380) Mean. Sens: 1.369
  PTEN Mean. Sens: 1.495
  S6 (S240/244) Mean. Sens: 1.571
  bRaf (T401) Mean. Sens: 0.927
  p16INK4a Mean. Sens: 1.593
Bcl-2:BIM complex; AML cell lines
  Bcl-2:BIM complex: disrupted by venetoclax in most cell lines
AML cell lines [3]
  sensitivity of cell lines to single agent: resistant
MOLM13-luci-GFP cells
  leukemia burden by bioluminescent imaging: significantly reduced leukemia burden
